# Target: T1, human heme oxygenase-2 (hHO-2) (Homo sapiens, UniProt P30519)
# T1 construct: gene HMOX2; truncation derivative, 1–264 amino acids with an N-terminal His-tag
# T1 sequence (P30519 1-264): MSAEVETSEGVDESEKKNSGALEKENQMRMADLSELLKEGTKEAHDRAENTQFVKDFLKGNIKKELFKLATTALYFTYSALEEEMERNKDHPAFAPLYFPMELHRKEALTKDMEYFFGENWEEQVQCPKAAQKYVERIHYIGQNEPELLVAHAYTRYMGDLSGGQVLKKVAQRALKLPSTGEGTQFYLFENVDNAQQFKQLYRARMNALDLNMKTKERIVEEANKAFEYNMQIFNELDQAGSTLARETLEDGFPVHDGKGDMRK
# Assay: spectral (Soret) binding and heme degradation assay on purified protein
smiles,measurement,value
"O=C(CC(c1ccccc1)c1ccccc1)Cn1ccnc1 [QC-308, 1-(1H-imidazol-1-yl)-4,4-diphenyl-2-butanone]",spectral (Soret) binding and heme degradation assay on purified protein,the spectral changes upon addition of QC-308 were similar to those seen for hHO-1

# Source: article PMC3261875 (PLoS ONE, 2012)
